Reference: paper PMC12102759 (Protein Science : A Publication of the Protein Society, 2025)
Read-outs that look alike come from different tables or passages of the source.

Tested on: G3BP1 NFT2
Format: binding, human
Settings: library DMS-CoV, bait G3BP1 NFT2, prey N, listed as aa = residue placed at this position, column sums to 1

RNAPRITFGGPSDSTG N2M (RMAPRITFGGPSDSTG) was tested, and the “DMS PSSM value, N (position 2)” value (peptide RNAPRITFGGPSDSTG) was 0.
In the case of “APRITFGGPSDSTGSN S12N (APRITFGGPSDNTGSN)”, the “DMS PSSM value, S (position 12)” value (peptide APRITFGGPSDSTGSN) is reported as 0.001178.
With APRITFGGPSDSTGSN I4R (APRRTFGGPSDSTGSN) the “DMS PSSM value, I (position 4)” value (peptide APRITFGGPSDSTGSN) was 0.
RNAPRITFGGPSDSTG P4R (RNARRITFGGPSDSTG) was tested, and the “DMS PSSM value, P (position 4)” value (peptide RNAPRITFGGPSDSTG) was 0.
“APRITFGGPSDSTGSN D11T (APRITFGGPSTSTGSN)” was tested, and the “DMS PSSM value, D (position 11)” value (peptide APRITFGGPSDSTGSN) was 0.104.
In the case of “APRITFGGPSDSTGSN S15M (APRITFGGPSDSTGMN)”, the “DMS PSSM value, S (position 15)” value (peptide APRITFGGPSDSTGSN) is reported as 0.006693.
With “APRITFGGPSDSTGSN S10R (APRITFGGPRDSTGSN)” the “DMS PSSM value, S (position 10)” value (peptide APRITFGGPSDSTGSN) was 0.
For “RNAPRITFGGPSDSTG S12W (RNAPRITFGGPWDSTG)”, the “DMS PSSM value, S (position 12)” value (peptide RNAPRITFGGPSDSTG) was 0.
RNAPRITFGGPSDSTG R5W (RNAPWITFGGPSDSTG) was tested, and the “DMS PSSM value, R (position 5)” value (peptide RNAPRITFGGPSDSTG) was 0.
In the case of “RNAPRITFGGPSDSTG G16I (RNAPRITFGGPSDSTI)”, the “DMS PSSM value, G (position 16)” value (peptide RNAPRITFGGPSDSTG) is reported as 0.
In the case of RNAPRITFGGPSDSTG T7L (RNAPRILFGGPSDSTG), the “DMS PSSM value, T (position 7)” value (peptide RNAPRITFGGPSDSTG) is reported as 0.
For RNAPRITFGGPSDSTG R5A (RNAPAITFGGPSDSTG), the “DMS PSSM value, R (position 5)” value (peptide RNAPRITFGGPSDSTG) was 0.0005421.
For RNAPRITFGGPSDSTG T7Q (RNAPRIQFGGPSDSTG), the “DMS PSSM value, T (position 7)” value (peptide RNAPRITFGGPSDSTG) was 0.
“RNAPRITFGGPSDSTG T15M (RNAPRITFGGPSDSMG)” was tested, and the “DMS PSSM value, T (position 15)” value (peptide RNAPRITFGGPSDSTG) was 0.
For APRITFGGPSDSTGSN R3G (APGITFGGPSDSTGSN), the “DMS PSSM value, R (position 3)” value (peptide APRITFGGPSDSTGSN) was 0.02417.
RNAPRITFGGPSDSTG N2S (RSAPRITFGGPSDSTG) was tested, and the “DMS PSSM value, N (position 2)” value (peptide RNAPRITFGGPSDSTG) was 0.05861.
“APRITFGGPSDSTGSN S10Y (APRITFGGPYDSTGSN)” was tested, and the “DMS PSSM value, S (position 10)” value (peptide APRITFGGPSDSTGSN) was 0.2277.
In the case of RNAPRITFGGPSDSTG T7V (RNAPRIVFGGPSDSTG), the “DMS PSSM value, T (position 7)” value (peptide RNAPRITFGGPSDSTG) is reported as 0.
APRITFGGPSDSTGSN P9Y (APRITFGGYSDSTGSN) was tested, and the “DMS PSSM value, P (position 9)” value (peptide APRITFGGPSDSTGSN) was 0.04934.
In the case of “RNAPRITFGGPSDSTG G16V (RNAPRITFGGPSDSTV)”, the “DMS PSSM value, G (position 16)” value (peptide RNAPRITFGGPSDSTG) is reported as 0.
In the case of APRITFGGPSDSTGSN T5V (APRIVFGGPSDSTGSN), the “DMS PSSM value, T (position 5)” value (peptide APRITFGGPSDSTGSN) is reported as 0.
With APRITFGGPSDSTGSN G7S (APRITFSGPSDSTGSN) the “DMS PSSM value, G (position 7)” value (peptide APRITFGGPSDSTGSN) was 0.
In the case of APRITFGGPSDSTGSN P9F (APRITFGGFSDSTGSN), the “DMS PSSM value, P (position 9)” value (peptide APRITFGGPSDSTGSN) is reported as 0.2349.
With APRITFGGPSDSTGSN A1D (DPRITFGGPSDSTGSN) the “DMS PSSM value, A (position 1)” value (peptide APRITFGGPSDSTGSN) was 0.5313.
In the case of “APRITFGGPSDSTGSN T13R (APRITFGGPSDSRGSN)”, the “DMS PSSM value, T (position 13)” value (peptide APRITFGGPSDSTGSN) is reported as 0.
With “APRITFGGPSDSTGSN S15Y (APRITFGGPSDSTGYN)” the “DMS PSSM value, S (position 15)” value (peptide APRITFGGPSDSTGSN) was 0.1419.
With APRITFGGPSDSTGSN P2E (AERITFGGPSDSTGSN) the “DMS PSSM value, P (position 2)” value (peptide APRITFGGPSDSTGSN) was 0.7321.
For APRITFGGPSDSTGSN F6D (APRITDGGPSDSTGSN), the “DMS PSSM value, F (position 6)” value (peptide APRITFGGPSDSTGSN) was 0.
With APRITFGGPSDSTGSN T5S (APRISFGGPSDSTGSN) the “DMS PSSM value, T (position 5)” value (peptide APRITFGGPSDSTGSN) was 0.002921.
With APRITFGGPSDSTGSN G7D (APRITFDGPSDSTGSN) the “DMS PSSM value, G (position 7)” value (peptide APRITFGGPSDSTGSN) was 0.
For APRITFGGPSDSTGSN P2K (AKRITFGGPSDSTGSN), the “DMS PSSM value, P (position 2)” value (peptide APRITFGGPSDSTGSN) was 0.
For RNAPRITFGGPSDSTG N2K (RKAPRITFGGPSDSTG), the “DMS PSSM value, N (position 2)” value (peptide RNAPRITFGGPSDSTG) was 0.
In the case of APRITFGGPSDSTGSN P2A (AARITFGGPSDSTGSN), the “DMS PSSM value, P (position 2)” value (peptide APRITFGGPSDSTGSN) is reported as 0.004798.
RNAPRITFGGPSDSTG G9E (RNAPRITFEGPSDSTG) was tested, and the “DMS PSSM value, G (position 9)” value (peptide RNAPRITFGGPSDSTG) was 0.
In the case of RNAPRITFGGPSDSTG, the “DMS PSSM value, A (position 3)” value (peptide RNAPRITFGGPSDSTG) is reported as 0, the “DMS PSSM value, D (position 13)” value (peptide RNAPRITFGGPSDSTG) is reported as 0 and the “DMS PSSM value, F (position 8)” value (peptide RNAPRITFGGPSDSTG) is reported as 1. The “DMS PSSM value, G (position 9)” value (peptide RNAPRITFGGPSDSTG) was 0, the “DMS PSSM value, G (position 10)” value (peptide RNAPRITFGGPSDSTG) was 0 and the “DMS PSSM value, G (position 16)” value (peptide RNAPRITFGGPSDSTG) was 0. For the same sequence, the “DMS PSSM value, I (position 6)” value (peptide RNAPRITFGGPSDSTG) was 0, the “DMS PSSM value, N (position 2)” value (peptide RNAPRITFGGPSDSTG) was 0 and the “DMS PSSM value, P (position 4)” value (peptide RNAPRITFGGPSDSTG) was 0. For the same sequence, the “DMS PSSM value, P (position 11)” value (peptide RNAPRITFGGPSDSTG) was 1, the “DMS PSSM value, R (position 5)” value (peptide RNAPRITFGGPSDSTG) was 0 and the “DMS PSSM value, S (position 12)” value (peptide RNAPRITFGGPSDSTG) was 0. The “DMS PSSM value, S (position 14)” value (peptide RNAPRITFGGPSDSTG) was 0, the “DMS PSSM value, T (position 7)” value (peptide RNAPRITFGGPSDSTG) was 0 and the “DMS PSSM value, T (position 15)” value (peptide RNAPRITFGGPSDSTG) was 0.
In the case of RNAPRITFGGPSDSTG F8M (RNAPRITMGGPSDSTG), the “DMS PSSM value, F (position 8)” value (peptide RNAPRITFGGPSDSTG) is reported as 0.
APRITFGGPSDSTGSN P9W (APRITFGGWSDSTGSN) was tested, and the “DMS PSSM value, P (position 9)” value (peptide APRITFGGPSDSTGSN) was 0.
“APRITFGGPSDSTGSN S12Y (APRITFGGPSDYTGSN)” was tested, and the “DMS PSSM value, S (position 12)” value (peptide APRITFGGPSDSTGSN) was 0.2998.
For APRITFGGPSDSTGSN P2F (AFRITFGGPSDSTGSN), the “DMS PSSM value, P (position 2)” value (peptide APRITFGGPSDSTGSN) was 0.0008942.
For APRITFGGPSDSTGSN P2V (AVRITFGGPSDSTGSN), the “DMS PSSM value, P (position 2)” value (peptide APRITFGGPSDSTGSN) was 0.
In the case of APRITFGGPSDSTGSN G8N (APRITFGNPSDSTGSN), the “DMS PSSM value, G (position 8)” value (peptide APRITFGGPSDSTGSN) is reported as 0.
With RNAPRITFGGPSDSTG T7G (RNAPRIGFGGPSDSTG) the “DMS PSSM value, T (position 7)” value (peptide RNAPRITFGGPSDSTG) was 0.
With “APRITFGGPSDSTGSN S15G (APRITFGGPSDSTGGN)” the “DMS PSSM value, S (position 15)” value (peptide APRITFGGPSDSTGSN) was 0.002342.
